Patent US7488720B2, “A1 adenosine receptor agonists” (CV Therapeutics, Inc., priority 2005, dated 2009)

Test: Blood brain penetration assay (in situ brain perfusion)
Assay type: in vivo
Conditions: rat in situ brain perfusion, 5 μM, 1 min, left cerebrum
Protocol: Studies of transport of the compounds of Formula I were carried out in accordance with an in situ brain perfusion technique disclosed in “Methods in Molecular medicine, Vol. 89, pp209-218, by Quentin R. Smith and David D. Allen
Anesthesia: Cocktail of 90 mg/kg ketamine/9 mg/kg xylazine was given at a volume of […] as i.m. injection.
Surgery and perfusion: The left common carotid artery was cannulated, the chest opened and the heart severed. The brain was perfused at 10 ml/min for a predetermined duration of time, followed by post-perfusion with perfusion solution for 30 seconds.
A stock solution of the test drug was prepared as a solution of […] in DMSO.
C. Treatment • 1. Three rats per group were infused with the study compounds or a control compound via the left common carotid artery. • 2. Brain and perfusion solution samples were obtained at the end of the perfusions. D. Sample Collection • 1. Brains were collected and the left hemispheres or regions thereof were segmented and flash frozen in liquid nitrogen. • 2. A sample of the perfusion solution was also taken after each perfusion into an Eppendorf tube, and stored at −80° C. in separate container from the brain samples. • 3. When necessary, prior to the perfusion, blood samples were collected in tubes prepared with study anticoagulant. Whole blood was centrifuged at 8000 rpm for 3 minutes. Plasma was collected into Eppendorf tubes and frozen at −80° C. in separate container from the brain samples. E. Analytical and Data Analysis
Concentrations of study and marker compounds in all samples was measured using LC/MS-MS (and/or LC-UV technique when applicable) and permeability kinetics were determined.

| SMILES | rate of penetration of the blood brain barrier [pmol/g/s] |
| --- | --- |
| CN(C)CCCN1c2ccccc2Sc2ccc(Cl)cc21 [Chlorpromazine, reference compound] | 61.5 |
| O=C(NCc1nc(NC2CCCC2)c2ncn([C@@H]3O[C@H](CO)[C@@H](O)[C@H]3O)c2n1)c1ccc(S(=O)(=O)O)cc1 [Example 6A, 4-[N-({9-[(4S,2R,3R,5R)-3,4-dihydroxy-5-(hydroxymethyl)oxolan-2-yl]-6-(cyclopentylamino)purin-2-yl}methyl)carbamoyl]benzenesulfonic acid] | 0.015 |
| O=C(CS(=O)(=O)O)NCc1nc(NC2CCCC2)c2ncn([C@@H]3O[C@H](CO)[C@@H](O)[C@H]3O)c2n1 [Example 6B, N-({9-[(4S,2R,3R,5R)-3,4-dihydroxy-5-(hydroxymethyl)oxolan-2-yl]-6-(cyclopentylamino)purin-2-yl}methyl)carbamoylmethylsulfonic acid] | 0.10 |
